According to PubChem BioAssay (NCI):
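At the GI50, growth is halved. TGI marks complete inhibition of growth.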

Experiments:
Assay in all cases: NCI-60 cell line screen, 384-well format
MDA-MB-435 melanoma = tested on: MDA-MB-435 melanoma
HS 578T breast = tested on: HS 578T breast
SF-295 CNS = tested on: SF-295 CNS
SK-MEL-28 melanoma = tested on: SK-MEL-28 melanoma
786-0 renal = tested on: 786-0 renal
HCT-15 colon = tested on: HCT-15 colon
HCT-116 colon = tested on: HCT-116 colon
OVCAR-5 ovarian = tested on: OVCAR-5 ovarian
HL-60(TB) leukemia = tested on: HL-60(TB) leukemia
ACHN renal = tested on: ACHN renal
SF-268 CNS = tested on: SF-268 CNS
PC-3 prostate = tested on: PC-3 prostate
RXF 393 renal = tested on: RXF 393 renal
DU-145 prostate = tested on: DU-145 prostate
SR leukemia = tested on: SR leukemia
SK-MEL-2 melanoma = tested on: SK-MEL-2 melanoma
NCI-H23 lung = tested on: NCI-H23 lung
M14 melanoma = tested on: M14 melanoma
OVCAR-8 ovarian = tested on: OVCAR-8 ovarian
UO-31 renal = tested on: UO-31 renal
BT-549 breast = tested on: BT-549 breast
COLO 205 colon = tested on: COLO 205 colon
EKVX NSCLC = tested on: EKVX NSCLC
SK-OV-3 ovarian = tested on: SK-OV-3 ovarian
SNB-75 CNS = tested on: SNB-75 CNS
NCI-H322M lung = tested on: NCI-H322M lung
IGROV1 ovarian = tested on: IGROV1 ovarian

Nc1nn2cc(F)cnc2c1C(=O)Nc1cncc(F)c1N1CCC(C(=O)N2CCN(C3COC3)CC2)CC1
TGI (MDA-MB-435 melanoma): 308 nM
GI50 (HS 578T breast): 13 nM
TGI (HS 578T breast): 42.2 nM
GI50 (SF-295 CNS): 31.5 nM
TGI (SF-295 CNS): 171 nM
GI50 (SK-MEL-28 melanoma): 2040 nM
TGI (SK-MEL-28 melanoma): > 100000 nM
GI50 (786-0 renal): 103 nM
TGI (786-0 renal): 323 nM
GI50 (HCT-15 colon): 34.7 nM
TGI (HCT-15 colon): 208 nM
GI50 (HCT-116 colon): 92.9 nM
TGI (HCT-116 colon): 1750 nM
GI50 (OVCAR-5 ovarian): 543 nM
TGI (OVCAR-5 ovarian): > 100000 nM
GI50 (HL-60(TB) leukemia): 37.4 nM
TGI (HL-60(TB) leukemia): 83.8 nM
GI50 (ACHN renal): 46.9 nM
TGI (ACHN renal): 251 nM
GI50 (SF-268 CNS): 77.6 nM
TGI (SF-268 CNS): 1740 nM
GI50 (PC-3 prostate): 296 nM
TGI (PC-3 prostate): 2820 nM
GI50 (RXF 393 renal): 16 nM
TGI (RXF 393 renal): 53.2 nM
GI50 (DU-145 prostate): 70.5 nM
TGI (DU-145 prostate): 954 nM
TGI (SR leukemia): 22.1 nM
GI50 (SK-MEL-2 melanoma): 24.1 nM
TGI (SK-MEL-2 melanoma): 80.2 nM
GI50 (NCI-H23 lung): 16.9 nM
TGI (NCI-H23 lung): 55.2 nM
GI50 (M14 melanoma): 35 nM
TGI (M14 melanoma): 378 nM
GI50 (OVCAR-8 ovarian): 174 nM
TGI (OVCAR-8 ovarian): 558 nM
GI50 (UO-31 renal): 194 nM
TGI (UO-31 renal): 717 nM
GI50 (BT-549 breast): 24.5 nM
TGI (BT-549 breast): 84.4 nM
GI50 (COLO 205 colon): 218 nM
TGI (COLO 205 colon): 2090 nM
GI50 (EKVX NSCLC): 132 nM
TGI (EKVX NSCLC): 615 nM
GI50 (SK-OV-3 ovarian): 57.3 nM
TGI (SK-OV-3 ovarian): 264 nM
GI50 (SNB-75 CNS): 219 nM
TGI (SNB-75 CNS): 1990 nM
GI50 (NCI-H322M lung): 33.9 nM
TGI (NCI-H322M lung): 306 nM
GI50 (IGROV1 ovarian): 170 nM
TGI (IGROV1 ovarian): 1540 nM
